The test system of one assay is BRCA1 mRNA expression in MDA-MB-231 cells. The experiment in a line: qRT-PCR assay: inhibition of BRCA1 mRNA expression in MDA-MB-231 cells. The format is cell-based, human. The settings on record: 24 h exposure, BRCA1 mRNA normalised to GAPDH, median, read-out: RTqPCR-MDA-MB-231 IC50 [mol/l] BRCA1 (median). On the procedure:
3. qRT-PCR Assay: BRCA1, ATR, MCL1 in MDA-MB-231, CAL-120
Tissue cultured human MDA-MB-231 human breast cancer cells were plated in 500 microL per well at 200,000 cells/well in a 24 well microtiter plate. After 24 h, the cells were exposed continuously for 24 h to test substances (substances were added with Tecan HP D300 Dispenser). RNA was prepared using Qiagen RNeasy MiniKit (#74106), RNA was quantified using a NanoDrop Equipment, and 600 nano gamms of RNA was coverted to cDNA using a SuperScript VILO kit (Thermofisher #11755050) followed by qPCR amplification. BRCA1 and ATR gene expression was measured by RT-qPCR and normalised to GAPDH housekeeping gene expression. qPCR primer sets have been purchased from Thermo Fisher Scientific/Applied Biosystems: BRCA1, # Hs 01556193; ATR, #Hs 00992123; GAPDH, #Hs 03929097.
Background: Quantitative PCR measures a nucleic acid by following its amplification.
For the molecule `CN1CCCC(n2nc(NCc3nc4ccccc4[nH]3)c3ncc(C4CC4)nc32)CC1` (single isomer, unassigned) [Example 38, (−) or (+)-N-[(1H-benzimidazol-2-yl)methyl]-6-cyclopropyl-1-[(4R*)-1-methylazepan-4-yl]-1H-pyrazolo[3,4-b]pyrazin-3-amine], the IC50 was determined as 21.8 nM.

Regarding `COCCC(C)n1nc(NCc2nc3ccccc3[nH]2)c2ncc(C3CC3)nc21` (single isomer, unassigned; (-)) [Example 58, (−)-N-[(1H-benzimidazol-2-yl)methyl]-6-cyclopropyl-1-[4-methoxybutan-2-yl]-1H-pyrazolo[3,4-b]pyrazin-3-amine], the IC50 was found to be 28.2 nM.

Regarding `c1ccc2[nH]c(CNc3nn(C4CCOC4)c4nc(C5CC5)cnc34)nc2c1` (single isomer, unassigned) [Example 18, (-) or (+) -N-[(1H-benzimidazol-2-yl)methyl]-6-cyclopropyl-1-[oxolan-3-yl]-1H-pyrazolo[3,4-b]pyrazin-3-amine], the IC50 was over 10.7 nM.

Still in this assay, the particulars now being: Homo sapiens, MDA-MB-231, 24 h, 24 h exposure, BRCA1 mRNA normalised to GAPDH, median, read-out: RTqPCR-MDA-MB-231 IC50 [mol/l] BRCA1 (median).
As to `CN1CCC(n2nc(NCc3nc4cc(Cl)c(F)cc4[nH]3)c3ncc(C4CC4)nc32)CC1` [Example 29, N-[(5-chloro-6-fluoro-1H-benzimidazol-2-yl)methyl]-6-cyclopropyl-1-(1-methylpiperidin-4-yl)-1H-pyrazolo[3,4-b]pyrazin-3-amine], the IC50 stood at 9.47 nM.

Take `Cc1ccc2[nH]c(CNc3nn(C4CCN(C)CC4)c4nc(C5CC5)cnc34)nc2c1C` [Example 28, 6-cyclopropyl-N-[(4,5-dimethyl-1H-benzimidazol-2-yl)methyl]-1-(1-methylpiperidin-4-yl)-1H-pyrazolo[3,4-b]pyrazin-3-amine]: the IC50 was determined as 16.8 nM.

On to `O[C@H]1C[C@@H](n2nc(NCc3nc4ccccc4[nH]3)c3ncc(C4CC4)nc32)C1` [Example 40, cis-3-(3-{[(1H-benzimidazol-2-yl)methyl]amino}-6-cyclopropyl-1H-pyrazolo[3,4-b]pyrazin-1-yl)cyclobutan-1-ol], for which the IC50 was found to be 8.65 nM.

As for `O[C@H]1C[C@@H](Cn2nc(NCc3nc4ccccc4[nH]3)c3ncc(C4CC4)nc32)C1` [Example 71, cis-3-[(3-{[(1H-benzimidazol-2-yl)methyl]amino}-6-cyclopropyl-1H-pyrazolo[3,4-b]pyrazin-1-yl)methyl]cyclobutan-1-ol], the IC50 is 3.01 nM.

`CN1CCC(n2nc(NCc3nc4c(Br)cccc4[nH]3)c3ncc(C4CC4)nc32)CC1` [Example 20, N-[(4-bromo-1H-benzimidazol-2-yl)methyl]-6-cyclopropyl-1-(1-methylpiperidin-4-yl)-1H-pyrazolo[3,4-b]pyrazin-3-amine]: the IC50 was determined as 20.6 nM.

As for `Cn1nc(NCc2nc3ccccc3[nH]2)c2ncc(C3CC3)nc21` [Example 15, N-[(1H-benzimidazol-2-yl)methyl]-6-cyclopropyl-1-methyl-1H-pyrazolo[3,4-b]pyrazin-3-amine], the IC50 turned out to be 131 nM.

Consider `Fc1cccc2[nH]c(CNc3nn(C4CCOCC4)c4nc(C5CC5)cnc34)nc12` [Example 23, 6-cyclopropyl-N-[(4-fluoro-1H-benzimidazol-2-yl)methyl]-1-(oxan-4-yl)-1H-pyrazolo[3,4-b]pyrazin-3-amine], for which the IC50 stood at 30.9 nM.

With `c1ccc2[nH]c(CNc3nn(C4CCCC4)c4nc(C5CC5)cnc34)nc2c1` [Example 39, N-[(1H-benzimidazol-2-yl)methyl]-1-cyclopentyl-6-cyclopropyl-1H-pyrazolo[3,4-b]pyrazin-3-amine], the IC50 was found to be 107 nM.

As to `Cc1c(Cl)ccc2[nH]c(CNc3nn(C4CCN(C)CC4)c4nc(C5CC5)cnc34)nc12` [Example 21, N-[(5-chloro-4-methyl-1H-benzimidazol-2-yl)methyl]-6-cyclopropyl-1-(1-methylpiperidin-4-yl)-1H-pyrazolo[3,4-b]pyrazin-3-amine], the IC50 was determined as 26.1 nM.

On to `c1ccc2[nH]c(CNc3nn(C4C[C@H]5CC[C@@H](C4)O5)c4nc(C5CC5)cnc34)nc2c1` (stereo partly drawn) [Example 45, exo/endo-N-[(1H-benzimidazol-2-yl)methyl]-6-cyclopropyl-1-(8-oxabicyclo[3.2.1]octan-3-yl)-1H-pyrazolo[3,4-b]pyrazin-3-amine], for which the IC50 came to 7.6 nM.

As to `CN1CCC(n2nc(NCc3nc4c(F)cccc4[nH]3)c3ncc(C4CC4)nc32)CC1` [Example 3, 6-cyclopropyl-N-[(4-fluoro-1H-benzimidazol-2-yl)methyl]-1-(1-methylpiperidin-4-yl)-1H-pyrazolo[3,4-b]pyrazin-3-amine], the IC50 amounted to 8.64 nM.

As to `CN1CCCC(n2nc(NCc3nc4ccccc4[nH]3)c3ncc(C4CC4)nc32)CC1` (racemic) [Example 34, (±)-N-[(1H-benzimidazol-2-yl)methyl]-6-cyclopropyl-1-(1-methylazepan-4-yl)-1H-pyrazolo[3,4-b]pyrazin-3-amine], the IC50 amounted to 22.5 nM.

On to `O[C@H]1C[C@H](n2nc(NCc3nc4ccccc4[nH]3)c3ncc(C4CC4)nc32)C1` [Example 43, trans-3-(3-{[(1H-benzimidazol-2-yl)methyl]amino}-6-cyclopropyl-1H-pyrazolo[3,4-b]pyrazin-1-yl)cyclobutan-1-ol], for which the IC50 is 28.9 nM.

Consider `Cc1cccc2[nH]c(CNc3nn(C4CCOCC4)c4nc(C5CC5)cnc34)nc12` [Example 33, 6-cyclopropyl-N-[(4-methyl-1H-benzimidazol-2-yl)methyl]-1-(oxan-4-yl)-1H-pyrazolo[3,4-b]pyrazin-3-amine], for which the IC50 amounted to 16.9 nM.

Take `COc1cccc2[nH]c(CNc3nn(C4CCOCC4)c4nc(C5CC5)cnc34)nc12` [Example 24, 6-cyclopropyl-N-[(4-methoxy-1H-benzimidazol-2-yl)methyl]-1-(oxan-4-yl)-1H-pyrazolo[3,4-b]pyrazin-3-amine]: the IC50 amounted to 4.77 nM.

With `CC1CC(n2nc(NCc3nc4ccccc4[nH]3)c3ncc(C4CC4)nc32)CCO1` (racemic) [Example 44, (±)-cis/trans-N-[(1H-benzimidazol-2-yl)methyl]-6-cyclopropyl-1-(2-methyloxan-4-yl)-1H-pyrazolo[3,4-b]pyrazin-3-amine], the IC50 was determined as 24.2 nM.

With `OC[C@H]1C[C@H](n2nc(NCc3nc4ccccc4[nH]3)c3ncc(C4CC4)nc32)C1` [Example 46, [trans-3-(3-{[(1H-benzimidazol-2-yl)methyl]amino}-6-cyclopropyl-1H-pyrazolo[3,4-b]pyrazin-1-yl)cyclobutyl]methanol], the IC50 was 4.02 nM.

With `CC(C)n1nc(NCc2nc3ccccc3[nH]2)c2ncc(C3CC3)nc21` [Example 14, N-[(1H-benzimidazol-2-yl)methyl]-6-cyclopropyl-1-(propan-2-yl)-1H-pyrazolo[3,4-b]pyrazin-3-amine], the IC50 was determined as 42.9 nM.

On to `CC(C)(O)C1CC(n2nc(NCc3nc4ccccc4[nH]3)c3ncc(C4CC4)nc32)C1` (mixture of isomers) [Example 48, 2-[cis/trans-3-(3-{[(1H-benzimidazol-2-yl)methyl]amino}-6-cyclopropyl-1H-pyrazolo[3,4-b]pyrazin-1-yl)cyclobutyl]propan-2-ol], for which the IC50 worked out at 39.5 nM.

With `O=CO.c1ccc(-n2nc(NCc3nc4ccccc4[nH]3)c3ncc(C4CC4)nc32)cc1` [Example 13, formic acid—N-[(1H-benzimidazol-2-yl)methyl]-6-cyclopropyl-1-phenyl-1H-pyrazolo[3,4-b]pyrazin-3-amine (1/1)], the IC50 was found to be 39 nM.

`c1ccc2[nH]c(CNc3nn(C4CCOC4)c4nc(C5CC5)cnc34)nc2c1` (single isomer, unassigned) [Example 17, (+) or (−)-N-[(1H-benzimidazol-2-yl)methyl]-6-cyclopropyl-1-(oxolan-3-yl)-1H-pyrazolo[3,4-b]pyrazin-3-amine]: the IC50 turned out to be 10.9 nM.

Consider `OC[C@H]1C[C@@H](n2nc(NCc3nc4ccccc4[nH]3)c3ncc(C4CC4)nc32)C1` [Example 47, [cis-3-(3-{[(1H-benzimidazol-2-yl)methyl]amino}-6-cyclopropyl-1H-pyrazolo[3,4-b]pyrazin-1-yl)cyclobutyl]methanol], for which the IC50 was 13.8 nM.

Take `O[C@H]1CC[C@H](n2nc(NCc3nc4ccccc4[nH]3)c3ncc(C4CC4)nc32)CC1` [Example 50, trans-4-(3-{[(1H-benzimidazol-2-yl)methyl]amino}-6-cyclopropyl-1H-pyrazolo[3,4-b]pyrazin-1-yl)cyclohexan-1-ol]: the IC50 turned out to be 17.5 nM.

In the case of `CN1CCC(n2nc(NCc3nc4cc(Cl)c(Cl)cc4[nH]3)c3ncc(C4CC4)nc32)CC1` [Example 19, 6-cyclopropyl-N-[(5,6-dichloro-1H-benzimidazol-2-yl)methyl]-1-(1-methylpiperidin-4-yl)-1H-pyrazolo[3,4-b]pyrazin-3-amine], the IC50 was 8.59 nM.

As for `COC(C)(C)CCn1nc(NCc2nc3ccccc3[nH]2)c2ncc(C3CC3)nc21` [Example 67, N-[(1H-benzimidazol-2-yl)methyl]-6-cyclopropyl-1-(3-methoxy-3-methylbutyl)-1H-pyrazolo[3,4-b]pyrazin-3-amine], the IC50 came to 78 nM.

Consider `COc1cccc2[nH]c(CNc3nn(C4CCN(C)CC4)c4nc(C5CC5)cnc34)nc12` [Example 2, 6-cyclopropyl-N-[(4-methoxy-1H-benzimidazol-2-yl)methyl]-1-(1-methylpiperidin-4-yl)-1H-pyrazolo[3,4-b]pyrazin-3-amine], for which the IC50 worked out at 8.55 nM.

For the origin of these results see patent US20230192700A1, “PYRAZOLOPYRAZINES ACTING ON CANCERS VIA INHIBITION OF CDK12” (Bayer Aktiengesellschaft, priority 2020, published 2023).
